Data from US9475808B2, “Inhibitor compounds of phosphodiesterase type 10A” (AbbVie Deutschland GmbH & Co. KG, priority 2013, dated 2016).

Legend:
[1] = target: PDE10A (UniProt Q9Y233); assay: Measurement of PDE activity (HTRF cAMP assay, recombinant enzyme); format: biochemical; conditions: 20 nM cyclic nucleotide substrate, 60 minutes at 29 C
Procedure: The recombinant PDE proteins are used in in vitro enzymatic reaction for measurement of PDE activity. These recombinant proteins, including PDE10A (human, rat and mouse PDE10) and isoforms of PDEs 1, 3, 4, and 5, were purchased from commercial vendor BPS Bioscience. The enzymatic activity of PDEs was determined by cAMP measurement kit from CisBio (IBA) using HTRF technology.
The PDE enzymatic reaction was carried out in assay buffer (20 mM Tris-HCl pH7.5, 10 mM MgCl2, 0.1% bovine serum albumin) containing enzyme and substrate. The PDE enzymes concentration ranged from 10 pM-250 pM, depending on each enzyme's specific activity. The substrate cyclic nucleotide (cAMP or cGMP) concentration used in the assay was 20 nM for PDE10, and 100 nM for other PDEs. The inhibitory effect of compound was determined by incubating various concentration of inhibitor in the enzymatic assay. Typically, compound was serial diluted in DMSO then further diluted in assay buffer. Next, the compound at varying concentration was mixed with PDE enzyme. The reaction was initiated by addition of cyclic nucleotide substrate, and incubated for 60 minutes at 29 C. The reaction was stopped by addition of lysis buffer from assay kit. The cAMP-d2 and anti-cAMP cryptate in the lysis buffer detected the level of cAMP left from the PDE hydrolysis reaction. The PDE activity is reversely correlated with the amount of cAMP left in the reaction and can be converted to the percent activity of an uninhibited control (100%). Thus, IC50 value of inhibitor can be obtained by plotting inhibitor concentration against PDE activity at that concentration.

[2] = Determination of the microsomal half-life / microsomal clearance, rat liver microsomes; conditions: 0.5 μM test substance, 0.25 mg microsomal protein/ml, pH 7.4, 37° C., NADPH
Procedure: (§1) The test substances were incubated in a concentration of 0.5 μM as follows:
(§2) 0.5 μM test substance are preincubated together with liver microsomes from different species (from rat, human or other species) (0.25 mg of microsomal protein/ml) in 0.05 M potassium phosphate buffer of pH 7.4 in microtiter plates at 37° C. for 5 min. The reaction is started by adding NADPH (1 mg/mL). After 0, 5, 10, 15, 20 and 30 min, 50 μl aliquots are removed, and the reaction is immediately stopped and cooled with the same volume of acetonitrile. The samples are frozen until analyzed. The remaining concentration of undegraded test substance is determined by MSMS. The half-life (T½) is determined from the gradient of the signal of test substance/unit time plot, it being possible to calculate the half-life of the test substance, assuming first order kinetics, from the decrease in the concentration of the compound with time. The microsomal clearance (mCl) is calculated from mCl=ln 2/T½/(content of microsomal protein in mg/ml)×1000 [ml/min/mg]

[3] = Determination of the microsomal half-life / microsomal clearance, human liver microsomes; conditions: 0.5 μM test substance, 0.25 mg microsomal protein/ml, pH 7.4, 37° C., NADPH
Procedure: as §1, §2

[4] = test system: rats; conditions: cited from earlier work
[5] = test system: rats; conditions: cited from earlier work; remark: listed apart in the source

SMILES	IC50 [1] [nM]	Rat mCl [2]	Human mCl [3]	catalepsy on its own ([4]; alone)	cataleptic effect of the D2 receptor antagonist haloperidol ([4]; with haloperidol)	hyperactivity induced by PCP ([5]; PCP-induced)	reduction of amphetamine-induced hyperactivity ([5]; amphetamine-induced)
Cn1cc2c(c(-c3ccc(F)cc3)c1=O)C(=O)N(CCc1ccc3ccccc3n1)C2 [Example 27, 7-(4-Fluoro-phenyl)-5-methyl-2-(2-quinolin-2-yl-ethyl)-3,5-dihydro-2H-pyrrolo[3,4-c]pyridine-1,6-dione]	100 to 200	++ (++: <100 μl min^−1 mg^−1)	+++ (+++ <10 μl min^−1 mg^−1)	–	–	–	–
Cn1cc2c(c(N3CCOCC3)c1=O)CN(CCc1ccc3ccccc3n1)C2=O [Example 6, 5-Methyl-7-morpholin-4-yl-2-(2-quinolin-2-yl-ethyl)-1,2-dihydro-5H-pyrrolo[3,4-c]pyridine-3,6-dione]	> 500	++ (++: <100 μl min^−1 mg^−1)	++ (++: <100 μl min^−1 mg^−1)	–	–	–	–
Cn1cc2c(c(N3CCOCC3)c1=O)C(=O)N(CCc1nc3n(n1)CCCC3)C2 [Example 25, 5-Methyl-7-morpholin-4-yl-2-[2-(5,6,7,8-tetrahydro-[1,2,4]triazolo[1,5-a]pyridin-2-yl)-ethyl]-3,5-dihydro-2H-pyrrolo[3,4-c]pyridine-1,6-dione]	> 500	+++ (+++ <10 μl min^−1 mg^−1)	+++ (+++ <10 μl min^−1 mg^−1)	–	–	–	–
O=C1c2c(cn(CCO)c(=O)c2N2CCOCC2)CN1CCc1ccc2ccccc2n1 [Example 19, 5-(2-Hydroxy-ethyl)-7-morpholin-4-yl-2-(2-quinolin-2-yl-ethyl)-3,5-dihydro-2H-pyrrolo[3,4-c]pyridine-1,6-dione]	< 100	+++ (+++ <10 μl min^−1 mg^−1)	++ (++: <100 μl min^−1 mg^−1)	–	–	–	–
COc1ccc(Cn2cc3c(c(N4CCOCC4)c2=O)C(=O)N(CCc2ccc4ccccc4n2)C3)cc1 [Example 14, 5-(4-Methoxy-benzyl)-7-morpholin-4-yl-2-(2-quinolin-2-yl-ethyl)-3,5-dihydro-2H-pyrrolo[3,4-c]pyridine-1,6-dione]	< 100	+ (+: 100-220 μl min^−1 mg^−1)	∘ (∘: >220 μl min^−1 mg^−1)	–	–	–	–
Cn1cc2c(c(-c3cncnc3)c1=O)C(=O)N(CCc1ccc3ccccc3n1)C2 [Example 28, 5-Methyl-7-pyrimidin-5-yl-2-(2-quinolin-2-yl-ethyl)-3,5-dihydro-2H-pyrrolo[3,4-c]pyridine-1,6-dione]	100 to 200	++ (++: <100 μl min^−1 mg^−1)	++ (++: <100 μl min^−1 mg^−1)	–	–	–	–
O=C1c2c(c[nH]c(=O)c2N2CCOCC2)CN1CCc1ccc2ccccc2n1 [Example 15, 7-Morpholin-4-yl-2-(2-quinolin-2-yl-ethyl)-3,5-dihydro-2H-pyrrolo[3,4-c]pyridine-1,6-dione]	< 100	++ (++: <100 μl min^−1 mg^−1)	++ (++: <100 μl min^−1 mg^−1)	–	–	–	–
Cn1cc2c(c(N3CCOCC3)c1=O)C(=O)N(CC(F)(F)c1ccc3ccccc3n1)C2 [Example 34, 2-(2,2-Difluoro-2-quinolin-2-yl-ethyl)-5-methyl-7-morpholin-4-yl-3,5-dihydro-2H-pyrrolo[3,4-c]pyridine-1,6-dione]	< 100	++ (++: <100 μl min^−1 mg^−1)	++ (++: <100 μl min^−1 mg^−1)	–	–	–	–
COCCn1cc2c(c(N3CCOCC3)c1=O)C(=O)N(CCc1ccc3ccccc3n1)C2 [Example 18, 5-(2-Methoxy-ethyl)-7-morpholin-4-yl-2-(2-quinolin-2-yl-ethyl)-3,5-dihydro-2H-pyrrolo[3,4-c]pyridine-1,6-dione]	< 100	++ (++: <100 μl min^−1 mg^−1)	++ (++: <100 μl min^−1 mg^−1)	–	–	–	–
CCn1cc2c(c(N3CCOCC3)c1=O)C(=O)N(CCc1ccc3ccccc3n1)C2 [Example 16, 5-Ethyl-7-morpholin-4-yl-2-(2-quinolin-2-yl-ethyl)-3,5-dihydro-2H-pyrrolo[3,4-c]pyridine-1,6-dione]	< 100	++ (++: <100 μl min^−1 mg^−1)	++ (++: <100 μl min^−1 mg^−1)	–	–	–	–
Cn1cc2c(c(N3CCOCC3)c1=O)C(=O)N(CCc1nc3ccccc3s1)C2 [Example 33, 2-[2-(1,3-benzothiazol-2-yl)ethyl]-5-methyl-7-morpholin-4-yl-3,5-dihydro-2H-pyrrolo[3,4-c]pyridine-1,6-dione]	100 to 200	+++ (+++ <10 μl min^−1 mg^−1)	+++ (+++ <10 μl min^−1 mg^−1)	–	–	–	–
Cn1cc2c(c(-c3cccnc3)c1=O)C(=O)N(CCc1nc3ccccn3n1)C2 [Example 26, 5-Methyl-7-pyridin-3-yl-2-(2-[1,2,4]triazolo[1,5-a]pyridin-2-yl-ethyl)-3,5-dihydro-2H-pyrrolo[3,4-c]pyridine-1,6-dione]	> 500	++ (++: <100 μl min^−1 mg^−1)	+++ (+++ <10 μl min^−1 mg^−1)	–	–	–	–
Cn1cc2c(c(-c3cccnc3)c1=O)C(=O)N(CCc1nc3ccccc3n1C)C2 [Example 21, 5-Methyl-2-[2-(1-methyl-1H-benzoimidazol-2-yl)-ethyl]-7-pyridin-3-yl-3,5-dihydro-2H-pyrrolo[3,4-c]pyridine-1,6-dione]	200 to 500	++ (++: <100 μl min^−1 mg^−1)	++ (++: <100 μl min^−1 mg^−1)	–	–	–	–
Cn1cc2c(c(-c3cccnc3)c1=O)C(=O)N(CCc1ccc3ccccc3n1)C2 [Example 13, 5-Methyl-7-pyridin-3-yl-2-(2-quinolin-2-yl-ethyl)-3,5-dihydro-2H-pyrrolo[3,4-c]pyridine-1,6-dione]	> 500	++ (++: <100 μl min^−1 mg^−1)	++ (++: <100 μl min^−1 mg^−1)	–	–	–	–
Cn1cc2c(c(N3CCOCC3)c1=O)C(=O)N(CCc1ccc3ccccc3n1)C2=O [Example 1, 5-Methyl-7-morpholin-4-yl-2-(2-quinolin-2-yl-ethyl)-5H-pyrrolo[3,4-c]pyridine-1,3,6-trione]	< 100	++ (++: <100 μl min^−1 mg^−1)	++ (++: <100 μl min^−1 mg^−1)	–	–	–	–
CN1CCN(c2c3c(cn(C)c2=O)C(=O)N(CCc2ccc4ccccc4n2)C3)CC1 [Example 7, 5-Methyl-7-(4-methyl-piperazin-1-yl)-2-(2-quinolin-2-yl-ethyl)-1,2-dihydro-5H-pyrrolo[3,4-c]pyridine-3,6-dione]	> 500	+++ (+++ <10 μl min^−1 mg^−1)	++ (++: <100 μl min^−1 mg^−1)	–	–	–	–
COc1ccc(-c2c3c(cn(C)c2=O)CN(CCc2ccc4ccccc4n2)C3=O)cc1 [Example 31, 7-(4-Methoxy-phenyl)-5-methyl-2-(2-quinolin-2-yl-ethyl)-3,5-dihydro-2H-pyrrolo[3,4-c]pyridine-1,6-dione]	100 to 200	++ (++: <100 μl min^−1 mg^−1)	++ (++: <100 μl min^−1 mg^−1)	–	–	–	–
Cn1cc2c(c(N3CCOCC3)c1=O)C(=O)N(CCc1ccc3ccccc3n1)C2 [Example 9, 5-Methyl-7-morpholin-4-yl-2-(2-quinolin-2-yl-ethyl)-3,5-dihydro-2H-pyrrolo[3,4-c]pyridine-1,6-dione]	< 100	++ (++: <100 μl min^−1 mg^−1)	++ (++: <100 μl min^−1 mg^−1)	–	–	–	–
Cn1cc2c(c(N3CCOCC3)c1=O)C(=O)N(CCc1nc3ccccn3n1)C2 [Example 24, 5-Methyl-7-morpholin-4-yl-2-(2-[1,2,4]triazolo[1,5-a]pyridin-2-yl-ethyl)-3,5-dihydro-2H-pyrrolo[3,4-c]pyridine-1,6-dione]	> 500	++ (++: <100 μl min^−1 mg^−1)	++ (++: <100 μl min^−1 mg^−1)	–	–	–	–
Cn1cc2c(c(N3CCOCC3)c1=O)C(=O)N(CCc1nc3ccccc3n1C)C2 [Example 20, 5-Methyl-2-[2-(1-methyl-1H-benzoimidazol-2-yl)-ethyl]-7-morpholin-4-yl-3,5-dihydro-2H-pyrrolo[3,4-c]pyridine-1,6-dione]	< 100	++ (++: <100 μl min^−1 mg^−1)	++ (++: <100 μl min^−1 mg^−1)	–	–	–	–
COc1ccc(Cc2nccc3cc(OC)c(OC)cc23)cc1OC [Papaverine, papaverine]	–	–	–	did not cause catalepsy on its own	potentiated the cataleptic effect	reduced hyperactivity	insignificant
